Experimental data reported in the supplement of paper PMC8566230.

Assays:
Assay in all cases: cell viability with growth factor relative to same drug with BSA mock; higher = growth factor protects cells from drug (more viable cells)
Conditions in all cases: treatment time: 6 days
Kelly = system: Kelly
Description: (§1)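 Six neuroblastoma cell lines were treated with a kinase inhibitor or vincristine at a fixed dose (70–90% lethal) plus a growth factor (100 ng/ml) or 0.1% BSA mock for 72 h. Drugs and growth factors were then renewed for another 72 h (6 days total). Viability was read by XTT in triplicate and normalised to the same drug plus BSA (=100%).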

LAN-1 = system: LAN-1
Description: as §1

SH-SY5Y = system: SH-SY5Y
Description: as §1

SK-N-AS = system: SK-N-AS
Description: as §1

SK-N-BE = system: SK-N-BE
Description: as §1

SK-N-SH = system: SK-N-SH
Description: as §1

CC[C@]1(O)C[C@H]2CN(CCc3c([nH]c4ccccc34)[C@@](C(=O)OC)(c3cc4c(cc3OC)N(C=O)[C@H]3[C@@](O)(C(=O)OC)[C@H](OC(C)=O)[C@]5(CC)C=CCN6CC[C@]43[C@@H]65)C2)C1 [vincristine]
cell viability with growth factor [%]
Conditions | added growth factor (100 ng/ml): BDNF | added growth factor (100 ng/ml): EPO | added growth factor (100 ng/ml): HGF | added growth factor (100 ng/ml): IGF-1 | added growth factor (100 ng/ml): NGF | added growth factor (100 ng/ml): SCF
Kelly, drug concentration: 5 nM | 86.8 | 89.5 | 95.4 | 200 | 70.2 | 99.2
LAN-1, drug concentration: 5 nM | 84.5 | 151 | 116 | 99.3 | 92.4 | 116
SH-SY5Y, drug concentration: 25 nM | 110 | 149 | 108 | 110 | 208 | 97.4
SK-N-AS, drug concentration: 5 nM | 95 | 78.5 | 124 | 219 | 88.2 | 97.3
SK-N-BE, drug concentration: 20 nM | 98 | 171 | 97.5 | 116 | 137 | 128
SK-N-SH, drug concentration: 5 nM | 98 | 152 | 97.7 | 142 | 129 | 88.1

C[C@@H](Oc1cc(-c2cnn(C3CCNCC3)c2)cnc1N)c1c(Cl)ccc(F)c1Cl [crizotinib]
cell viability with growth factor [%]
Conditions | added growth factor (100 ng/ml): BDNF | added growth factor (100 ng/ml): EPO | added growth factor (100 ng/ml): HGF | added growth factor (100 ng/ml): IGF-1 | added growth factor (100 ng/ml): NGF | added growth factor (100 ng/ml): SCF
Kelly, drug concentration: 1 uM | 352 | 365 | 112 | 176 | 300 | 107
LAN-1, drug concentration: 2.5 uM | 232 | 241 | 227 | 186 | 359 | 142
SH-SY5Y, drug concentration: 2.5 uM | 118 | 137 | 174 | 101 | 184 | 120
SK-N-AS, drug concentration: 5 uM | 103 | 89.6 | 106 | 130 | 73.9 | 106
SK-N-BE, drug concentration: 5 uM | 422 | 123 | 88.9 | 291 | 173 | 121
SK-N-SH, drug concentration: 1 uM | 122 | 111 | 82.7 | 90.8 | 210 | 95.3

Cc1nc(Nc2ncc(C(=O)Nc3c(C)cccc3Cl)s2)cc(N2CCN(CCO)CC2)n1 [dasatinib]
cell viability with growth factor [%]
Conditions | added growth factor (100 ng/ml): BDNF | added growth factor (100 ng/ml): EPO | added growth factor (100 ng/ml): HGF | added growth factor (100 ng/ml): IGF-1 | added growth factor (100 ng/ml): NGF | added growth factor (100 ng/ml): SCF
Kelly, drug concentration: 500 nM | 86.8 | 238 | 198 | 292 | 164 | 95.8
LAN-1, drug concentration: 5 nM | 93.1 | 228 | 129 | 138 | 273 | 97.6
SH-SY5Y, drug concentration: 25 nM | 131 | 320 | 97 | 135 | 217 | 169
SK-N-AS, drug concentration: 50 nM | 117 | 108 | 134 | 235 | 104 | 82.7
SK-N-BE, drug concentration: 500 nM | 90.9 | 130 | 111 | 185 | 83.6 | 146
SK-N-SH, drug concentration: 500 nM | 99.7 | 126 | 151 | 205 | 116 | 113

CNC(=O)c1ccccc1Sc1ccc2c(/C=C/c3ccccn3)n[nH]c2c1 [axitinib]
cell viability with growth factor [%]
Conditions | added growth factor (100 ng/ml): BDNF | added growth factor (100 ng/ml): EPO | added growth factor (100 ng/ml): HGF | added growth factor (100 ng/ml): IGF-1 | added growth factor (100 ng/ml): NGF | added growth factor (100 ng/ml): SCF
Kelly, drug concentration: 10 uM | 143 | 177 | 94.1 | 57.3 | 148 | 106
LAN-1, drug concentration: 5 uM | 112 | 173 | 93 | 98.5 | 159 | 117
SH-SY5Y, drug concentration: 2.5 uM | 104 | 138 | 95.7 | 80.7 | 137 | 107
SK-N-AS, drug concentration: 5 uM | 95.7 | 101 | 85.5 | 48.7 | 96.1 | 99
SK-N-BE, drug concentration: 5 uM | 103 | 142 | 100 | 255 | 122 | 149
SK-N-SH, drug concentration: 10 uM | 109.9 | 177 | 96.8 | 60 | 118 | 83.5

Cc1ccc(NC(=O)c2ccc(CN3CCN(C)CC3)cc2)cc1Nc1nccc(-c2cccnc2)n1 [imatinib]
cell viability with growth factor [%]
Conditions | added growth factor (100 ng/ml): BDNF | added growth factor (100 ng/ml): EPO | added growth factor (100 ng/ml): HGF | added growth factor (100 ng/ml): IGF-1 | added growth factor (100 ng/ml): NGF | added growth factor (100 ng/ml): SCF
Kelly, drug concentration: 25 uM | 165 | 184 | 167 | 145 | 125 | 134
LAN-1, drug concentration: 20 uM | 101 | 121 | 86.4 | 117 | 135 | 99.4
SH-SY5Y, drug concentration: 25 uM | 94.8 | 166 | 106 | 99.5 | 207 | 111
SK-N-AS, drug concentration: 20 uM | 104 | 103 | 123 | 134 | 111 | 112
SK-N-BE, drug concentration: 25 uM | 103 | 217 | 103 | 124 | 179 | 76.9
SK-N-SH, drug concentration: 25 uM | 106 | 121 | 143 | 110 | 110 | 98.2

COc1cc2nccc(Oc3ccc(NC(=O)C4(C(=O)Nc5ccc(F)cc5)CC4)cc3)c2cc1OC [cabozantinib]
cell viability with growth factor [%]
Conditions | added growth factor (100 ng/ml): BDNF | added growth factor (100 ng/ml): EPO | added growth factor (100 ng/ml): HGF | added growth factor (100 ng/ml): IGF-1 | added growth factor (100 ng/ml): NGF | added growth factor (100 ng/ml): SCF
Kelly, drug concentration: 5 uM | 109 | 118 | 84.5 | 73 | 133 | 101
LAN-1, drug concentration: 5 uM | 125 | 160 | 168 | 123 | 161 | 93.5
SH-SY5Y, drug concentration: 2.5 uM | 114 | 127 | 151 | 139 | 183 | 81.1
SK-N-AS, drug concentration: 7.5 uM | 124 | 99 | 108 | 84.9 | 95.9 | 96.9
SK-N-BE, drug concentration: 7.5 uM | 278 | 200 | 248 | 316 | 191 | 251
SK-N-SH, drug concentration: 5 uM | 153 | 110.1 | 94.5 | 59.6 | 153 | 124
